In data set [1] the target is T1, human Nav1.7 voltage-gated sodium channels (Homo sapiens, UniProt Q15858).
T1 construct: expressed in transfected cells; host or cells: HEK293
The data set can be described thus: Manual whole-cell patch-clamp, inhibition of hNav1.7 sodium current. Type of data set: cell-based. The conditions noted are these: HEK293 cells stably transfected with SCN9A, holding potential -80 mV, peak current. The method, then:
(§1) The potential inhibitory effect of Compound I-XXII on human voltage-gated sodium channels (hNav1.2/1.7) was evaluated by manual patch-clamp system according to the procedures as described. HEK293 cell line stably transfected with SCN2A/SCN9A gene was employed in this study and Tetrodotoxin (TTX) was used as a positive control to ensure the good quality of the assay.
(§2) General procedure: HEK 293 cells were stably transfected with human Nav1.2 or Nav1.7 voltage-gated sodium channels. The cells are routinely maintained in culture medium containing in 90% DMEM, 10% FBS, 100 U/mL Penicillin-Streptomycin and […] of G418. Before the assay, the cells were resuspended and plated onto the coverslips at 5×10^5 cells/per 6 cm cell culture dish for use. The voltage-gated Nav1.2 and Nav1.7 channel current was recorded at room temperature (25° C.) from randomly selected transfected cells under whole-cell patch clamp systems equipped with EPC10 USB (HEKA) or Multiclamp 700B amplifier (Molecular Devices), while electrical data was digitalized by Digidata1440A with sampling frequency over 10 kHz and acquired with Patchmaster or pClamp10 respectively. The glass electrode with resistance ranged from 2 to 3.5 MW was prepared by micropipette puller P-97 (Sutter Instrument) and filled with internal solutions (in mM): 140 KCl, 2 MgCl2, 10 EGTA, 10 HEPES and 5 MgATP (pH adjusted to 7.35 with KOH), while cells were bathed in extracellular solutions (in mM) 132 NaCl, 4 KCl, 3 CaCl2, 0.5 MgCl2, 11.1 glucose, and 10 HEPES (pH adjusted to 7.35 with NaOH). After rupture, the series membrane resistance was at least 50% compensated and capacitance was also compensated as well. All cells were voltage-clamped to a holding potential of −80 mV unless otherwise specified. The inward sodium currents were elicited by a 20-ms voltage pulse to 10 mV from −80 mV applied every 15 s. The sodium current was initially recorded for at least 120 seconds to assess the current stability, and only cells with recording parameters over acceptance criteria was finally used to assess the dose response to the local perfusion of Compound I-XXII. The blank vehicle was firstly applied to the patched cells in order to establish the recording baseline. After at least 5 min when the elicited sodium currents reaches stabilization, the test compound was perfused into recording chamber accumulatively from low to high concentrations. The positive control article, Tetrodotoxin (TTX), was also used to challenge same batch of cell in order to ensure the good performance of the recording system. All experiments were performed in triplicate for IC50 determination. Upon data acquisition, the PatchMaster or pClamfit software were used to extract the peak current from the original raw data, while the peak current inhibition was defined by equation as shown below.
(§3) The dose response curve for the test compound was plotted with % inhibition against the dose concentration of the test compound using Graphpad Prism 5.0 software, and then the data was fit to a sigmoid dose-response curve with variable slope for IC50 determination.
Background: In patch-clamp work, channel activity is measured electrically.

Data set [2] in a line: Rat pharmacokinetic study. The conditions noted are these: male, Sprague-Dawley, plasma, PO, single dose 5.8 mg/kg. Format: in vivo, male Sprague-Dawley rats. The method, then: For rat pharmacokinetic studies, male Sprague-Dawley rats were housed individually and fasted overnight before use. The animal dosing experiments were carried out in accordance to the National Institutes of Health Guide to the Care and Use of Laboratory Animals and the Animal Welfare Act. For Compound I, a single dose of 5.8 mg/kg was administered to each rat in two groups (n=5/group) via intravenous (IV) and oral (PO) administration, respectively. The vehicle used for IV administration was 10% (v/v) CremophorEL in 90% PBS. The vehicle used for PO administration was 0.5% (w/v) methylcellulose in normal saline solution. Blood samples were collected at specified time-points (pre-dose, 30 minutes, 1 hour, 2 hours, 4 hours, 7 hours, 8 hours, 12 hours, 24 hours) following administration to individual rats within IV and PO group. Blood samples were clotted on ice immediately, plasma samples were then isolated by centrifugation and stored frozen (−80° C.) until further analysis. The concentrations of Compound I were individually determined by LC/MS/MS assay. Various pharmacokinetic parameters were calculated using Phoenix™ WinNonlin® software. To quantify the bioconversion efficiency of the Compound I in the circulation system, the bioavailability of Compound I after PO administration was calculated.

The target of data set [3] is T2, human Nav1.2 voltage-gated sodium channels (Homo sapiens, UniProt Q99250).
T2 construct: expressed in transfected cells; host or cells: HEK293
T2 sequence (Q99250 whole entry): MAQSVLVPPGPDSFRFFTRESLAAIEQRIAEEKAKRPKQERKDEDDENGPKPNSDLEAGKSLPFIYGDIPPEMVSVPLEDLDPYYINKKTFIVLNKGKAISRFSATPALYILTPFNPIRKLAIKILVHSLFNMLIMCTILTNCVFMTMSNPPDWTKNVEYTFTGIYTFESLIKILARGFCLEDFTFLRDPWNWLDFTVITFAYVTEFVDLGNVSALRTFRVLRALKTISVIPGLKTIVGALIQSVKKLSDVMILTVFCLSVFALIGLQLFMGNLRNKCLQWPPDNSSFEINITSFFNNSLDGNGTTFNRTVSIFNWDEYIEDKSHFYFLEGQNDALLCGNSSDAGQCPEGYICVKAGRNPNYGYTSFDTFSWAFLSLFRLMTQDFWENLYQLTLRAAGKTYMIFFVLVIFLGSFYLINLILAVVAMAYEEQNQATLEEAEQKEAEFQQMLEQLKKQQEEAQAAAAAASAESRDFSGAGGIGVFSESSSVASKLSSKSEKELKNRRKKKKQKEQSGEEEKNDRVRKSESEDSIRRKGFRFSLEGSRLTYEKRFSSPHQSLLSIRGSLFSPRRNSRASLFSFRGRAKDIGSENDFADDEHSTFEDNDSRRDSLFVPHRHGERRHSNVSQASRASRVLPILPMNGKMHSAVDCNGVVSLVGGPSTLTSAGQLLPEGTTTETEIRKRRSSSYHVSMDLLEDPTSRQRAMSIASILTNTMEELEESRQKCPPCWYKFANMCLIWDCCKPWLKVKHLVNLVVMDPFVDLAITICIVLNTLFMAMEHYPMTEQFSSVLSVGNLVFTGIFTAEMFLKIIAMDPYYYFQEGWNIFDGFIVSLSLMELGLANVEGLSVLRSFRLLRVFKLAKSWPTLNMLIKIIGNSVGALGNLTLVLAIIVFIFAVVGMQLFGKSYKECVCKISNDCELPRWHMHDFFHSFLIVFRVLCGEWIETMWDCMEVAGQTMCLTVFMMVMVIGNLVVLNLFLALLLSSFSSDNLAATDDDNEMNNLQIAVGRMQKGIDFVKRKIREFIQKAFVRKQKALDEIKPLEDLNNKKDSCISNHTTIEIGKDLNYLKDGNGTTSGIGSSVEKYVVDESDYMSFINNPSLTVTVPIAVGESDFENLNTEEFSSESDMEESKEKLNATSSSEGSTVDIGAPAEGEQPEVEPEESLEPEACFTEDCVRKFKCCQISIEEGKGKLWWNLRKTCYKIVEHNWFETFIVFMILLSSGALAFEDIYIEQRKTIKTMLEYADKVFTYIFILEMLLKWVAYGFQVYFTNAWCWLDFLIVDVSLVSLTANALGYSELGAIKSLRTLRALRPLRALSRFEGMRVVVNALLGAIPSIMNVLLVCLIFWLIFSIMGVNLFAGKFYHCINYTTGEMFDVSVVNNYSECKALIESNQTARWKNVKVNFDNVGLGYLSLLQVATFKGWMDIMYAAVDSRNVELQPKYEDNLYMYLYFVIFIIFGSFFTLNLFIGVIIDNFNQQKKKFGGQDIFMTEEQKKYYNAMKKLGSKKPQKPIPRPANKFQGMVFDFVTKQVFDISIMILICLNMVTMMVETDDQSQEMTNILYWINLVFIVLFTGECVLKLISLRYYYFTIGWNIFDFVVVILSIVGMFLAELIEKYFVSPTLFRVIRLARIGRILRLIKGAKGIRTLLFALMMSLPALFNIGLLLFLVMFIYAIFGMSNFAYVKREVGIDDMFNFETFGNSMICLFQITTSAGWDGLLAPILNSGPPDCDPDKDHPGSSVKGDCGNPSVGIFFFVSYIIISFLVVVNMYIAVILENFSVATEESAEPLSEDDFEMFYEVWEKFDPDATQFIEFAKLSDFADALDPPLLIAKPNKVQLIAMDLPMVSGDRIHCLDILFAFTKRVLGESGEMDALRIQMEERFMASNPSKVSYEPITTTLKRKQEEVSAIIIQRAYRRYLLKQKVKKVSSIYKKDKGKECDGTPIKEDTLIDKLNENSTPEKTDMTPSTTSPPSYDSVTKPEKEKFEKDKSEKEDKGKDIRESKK
Kind of data set: Manual whole-cell patch-clamp, inhibition of hNav1.2 sodium current. Format: cell-based. The conditions noted are these: HEK293 cells stably transfected with SCN2A, holding potential -80 mV, peak current. The method, then:
as §1, §2, §3

In data set [4] the test system is SNL (Spinal Nerve Ligation) rats. The data set can be described thus: Mechanical allodynia in SNL (spinal nerve ligation) rats, von Frey. The following applies: 5 mg/kg i.p., 0.5 h time point post dose. Type of data set: in vivo, Sprague-Dawley rats. The method, then:
SNL model is a commonly used model to measure surgical induced neuropathic pain. The goal of the study was to evaluate the efficacy of Compound I to attenuate mechanical allodynia in SNL model in Sprague-Dawley rats.
In this study, SNL model was created following typical procedure and the approved drug Tapentadol (XW-TAP) was used as reference compound. Gabapentin was applied as positive control for model validation.
1) 5 mg/kg Compound I: Added 17.13 mg Compound I to 16.96 mL 0.5% methylcellulose in normal saline solution, vortexed to fully mix.
1) Rats were placed individually in a plastic enclosure with a mesh bottom which allowed full access to the paws. Rats were acclimated for 15 min prior to testing.
2) After acclimation, the mid-plantar hind paw was touched with one of a series of eight von Frey hairs with logarithmically incremental stiffness as follows: 3.61 (0.4 g), 3.84 (0.6 g), 4.08 (1 g), 4.31 (2 g), 4.56 (4 g), 4.74 (6 g), 4.93 (8 g) and 5.18 (15 g). The von Frey hairs were presented perpendicularly to the plantar surface with sufficient force to cause slight buckling against the paw and held for approximately 6-8 s. Stimulation was presented at intervals of 5 seconds, allowing for apparent resolution of any behavioral responses to previous stimulus. A positive response was noted if the paw was sharply withdrawn. […]

Another data set deals with metastatic melanoma. The following applies: Phase 2, patients with metastatic melanoma; cited from earlier work.

As a reminder, the IC50 is the concentration that gives 50% inhibition. Higher therefore signals a need for much substance. Broadly, the AUC(0-t) is the area under the concentration-time curve up to a stated or last time point. Read a low AUC(0-t) as low exposure. A word on the Cmax: it is the maximum level reached in the sampled fluid or tissue. Broadly, the Tmax is the time at which the peak concentration occurs. The term half-life denotes how long it takes for the measured level to halve. Low values mean rapid decline, high ones slow decline.

T1 sequence (Q15858 whole entry): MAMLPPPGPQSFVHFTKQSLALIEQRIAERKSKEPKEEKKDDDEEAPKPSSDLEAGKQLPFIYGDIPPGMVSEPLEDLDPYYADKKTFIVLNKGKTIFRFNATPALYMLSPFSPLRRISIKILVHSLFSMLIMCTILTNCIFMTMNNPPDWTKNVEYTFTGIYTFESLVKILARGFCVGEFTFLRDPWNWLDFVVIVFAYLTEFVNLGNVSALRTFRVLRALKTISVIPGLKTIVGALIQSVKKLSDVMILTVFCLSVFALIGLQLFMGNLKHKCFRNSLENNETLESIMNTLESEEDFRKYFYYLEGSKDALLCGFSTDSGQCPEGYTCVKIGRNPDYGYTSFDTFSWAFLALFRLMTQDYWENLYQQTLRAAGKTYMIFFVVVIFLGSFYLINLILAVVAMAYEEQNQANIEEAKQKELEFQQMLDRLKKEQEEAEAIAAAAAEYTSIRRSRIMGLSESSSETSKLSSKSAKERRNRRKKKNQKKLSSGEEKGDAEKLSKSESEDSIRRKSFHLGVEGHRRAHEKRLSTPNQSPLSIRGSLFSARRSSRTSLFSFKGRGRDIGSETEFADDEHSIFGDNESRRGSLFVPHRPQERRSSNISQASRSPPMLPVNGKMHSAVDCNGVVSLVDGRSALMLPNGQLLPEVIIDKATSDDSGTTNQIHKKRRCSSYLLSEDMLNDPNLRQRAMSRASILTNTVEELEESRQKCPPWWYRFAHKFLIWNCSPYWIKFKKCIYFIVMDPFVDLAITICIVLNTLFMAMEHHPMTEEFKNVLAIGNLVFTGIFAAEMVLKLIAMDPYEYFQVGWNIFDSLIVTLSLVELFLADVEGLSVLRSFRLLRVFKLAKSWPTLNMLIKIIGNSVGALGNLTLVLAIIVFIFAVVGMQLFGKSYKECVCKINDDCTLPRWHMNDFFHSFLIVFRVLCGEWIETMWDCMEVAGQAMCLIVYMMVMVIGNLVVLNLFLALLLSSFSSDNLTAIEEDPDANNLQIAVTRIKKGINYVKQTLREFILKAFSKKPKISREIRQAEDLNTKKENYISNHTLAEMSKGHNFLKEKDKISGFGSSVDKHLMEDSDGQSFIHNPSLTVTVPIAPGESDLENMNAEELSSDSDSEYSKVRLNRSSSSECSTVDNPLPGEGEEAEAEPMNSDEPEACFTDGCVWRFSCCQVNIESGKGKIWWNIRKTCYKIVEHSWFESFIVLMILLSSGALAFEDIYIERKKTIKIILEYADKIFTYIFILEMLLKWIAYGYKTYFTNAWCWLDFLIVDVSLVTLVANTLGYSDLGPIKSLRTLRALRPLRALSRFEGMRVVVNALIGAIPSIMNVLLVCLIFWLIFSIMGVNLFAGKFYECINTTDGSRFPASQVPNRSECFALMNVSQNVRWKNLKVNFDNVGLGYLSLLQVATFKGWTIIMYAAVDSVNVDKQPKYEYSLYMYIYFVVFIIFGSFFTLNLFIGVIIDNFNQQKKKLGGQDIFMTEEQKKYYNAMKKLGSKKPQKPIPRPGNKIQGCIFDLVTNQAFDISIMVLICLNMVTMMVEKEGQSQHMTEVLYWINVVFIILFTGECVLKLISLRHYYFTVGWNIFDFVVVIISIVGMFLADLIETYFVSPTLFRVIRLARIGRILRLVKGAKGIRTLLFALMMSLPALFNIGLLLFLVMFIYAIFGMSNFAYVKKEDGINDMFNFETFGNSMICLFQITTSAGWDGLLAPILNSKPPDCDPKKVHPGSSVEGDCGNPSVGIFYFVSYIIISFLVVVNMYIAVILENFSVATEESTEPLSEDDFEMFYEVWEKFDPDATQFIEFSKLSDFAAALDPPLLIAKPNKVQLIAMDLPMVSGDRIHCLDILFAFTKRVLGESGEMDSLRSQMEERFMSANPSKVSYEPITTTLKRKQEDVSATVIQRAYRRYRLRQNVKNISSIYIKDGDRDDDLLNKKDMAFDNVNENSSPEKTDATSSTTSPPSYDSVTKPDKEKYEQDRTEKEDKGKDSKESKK

As to `Nc1nc2ccc(S(F)(F)(F)(F)F)cc2s1` [Compound I, 6-(Pentafluorosulfanyl)benzo[d]thiazol-2-amine], half-maximal inhibition in data set [1] (IC50) was put at 682 nM. Besides, in data set [2], the exposure AUC(0-t) was 7690 ng·h/mL, the peak level (Cmax) was 942 ng/mL, the Tmax was 2.3 h and the half-life is 7.11 h. The molecule also displayed a 50% inhibitory concentration (IC50) in data set [3] of 4670 nM. Further, the “anti-allodynic effect on SNL-induced mechanical allodynia” value in data set [4] was “reversed SNL-induced mechanical allodynia”.
Regarding `Nc1nc2ccc(SC(F)(F)F)cc2[se]1` [Compound IX, 6-((Trifluoromethyl)thio)benzo[d][1,3]selenazol-2-amine], the 50% inhibitory concentration (IC50) in data set [1] is 1170 nM; in data set [3] it was 15300 nM.
Regarding `Nc1nc2ccc(S(F)(F)(F)(F)F)cc2[se]1` [Compound V, 6-(Pentafluorosulfanyl)benzo[d][1,3]selenazol-2-amine], the half-maximal inhibitory concentration (IC50) in data set [1] was determined as 722 nM; in data set [3] it was 4370 nM.
The corresponding values for `Nc1nc2ccc(C(F)(F)F)cc2[se]1` [Compound VI, 6-(Trifluoromethyl)benzo[d][1,3]selenazol-2-amine] are 745 nM and 10100 nM.
On to `Nc1nc2ccc(OC(F)(F)F)cc2[se]1` [Compound VII, 6-(Trifluoromethoxy)benzo[d][1,3]selenazol-2-amine], for which the IC50 in data set [1] was found to be 1360 nM; in data set [3], 18000 nM.
On to `Nc1nc2ccc(OC(F)(F)F)cc2s1` [Riluzole], for which the RECIST grade entry with metastatic melanoma is given as “no overall improvement of RECIST grade”.
